Laboratory results: article PMC10788915, “Fragment Merging, Growing, and Linking Identify New Trypanothione Reductase Inhibitors for Leishmaniasis” (Journal of Medicinal Chemistry, 2024)
Read-outs that look alike come from different tables or passages of the source.

How the values were obtained:
[1] = Cytotoxicity assay on primary murine macrophages (MTT); assay type: cell-based, Balb/c mice; conditions: Balb/c, mouse, primary peritoneal exudate macrophages, read-out: primary murine macrophage CC50 ± SE (95% CI)
Description: (§1) To assess the cytotoxicity of compounds on mammalian macrophages, we tested all the compounds against both human leukemia monocyte cell line (THP-1 cells, ATCC) differentiated into macrophages by treatment with 40 ng/mL of phorbol myristate acetate (PMA; Sigma) for 48 h and peritoneal exudate macrophages harvested from Balb/c mice. […] Cell viability was evaluated using the MTT assay, and the concentration of the compound that produced a 50% reduction of cell viability in treated culture cells with respect to untreated ones (CC50) was determined by GraphPad Prism 5.0 (GraphPad Software Inc., San Diego, USA). […] The selectivity index for each compound was calculated as the ratio of cytotoxicity (CC50) in macrophages cells to activity (IC50) against Leishmania axenic amastigotes. The experiments were performed in triplicate, and two independent experiments were conducted.

[2] = tested on: L. infantum axenic amastigotes; assay: In vitro inhibition of axenic amastigote growth (MTT); assay type: cell-based, Leishmania infantum; conditions: 72 h, read-out: axenic amastigote EC50 ± SE (95% CI)
Description: Axenic amastigote growth inhibition was evaluated using L. infantum strain (MHOM/TN/80/IPT1, WHO international reference strain). Axenic amastigote cultures were obtained as described previously with modifications.[45] Promastigotes were grown in Schneider’s Drosophila medium (SIGMA) containing 10% heat-inactivated fetal calf serum (FCS)(GIBCO-BRL) and 2% gentamicin (50 mg/L)(Sigma) in 25 cm^2 flasks at 22 °C. After 4–5 days, the parasites were adjusted to 1 × 10^6 parasites/mL in axenic medium MAA/20 consisting of modified medium 199 (Gibco BRL) with Hanks’ salts supplemented with 0.5% tryptic soy broth (Sigma), 0.01 mM bathocuproine disulfonic acid, 3 mM L-cysteine, 15 mM D-glucose, 5 mM L-glutamine, 4 mM NaHCO3, 0.023 mM bovine hemin, and 25 mM HEPES to a final pH of 6.5 and supplemented with 20% pretested FCS, and axenic amastigotes were obtained by shifting the incubation conditions: 198 μL of suspension was seeded in triplicate in 96-well flat bottom microplates and incubated at 37 °C, 5% CO2 for 48 h in order to allow the axenization. The amastigote cells were visualized under the light microscope to confirm transformation. Then, 2 μL of the selected compounds with varying concentrations were added: 100, 50, 25, 12.5, 6.25, 3.12, 1.56, 0.8, 0.4, 0.2, 0.1, 0.05 μM. […] Each experiment was conducted in triplicate for each drug concentration, and three independent experiments were performed. To estimate the 50% inhibitory concentration (IC50), the (3-[4.5-dimethylthiazol-2-yl]-2.5-diphenyltetrazolium bromide) (MTT) micromethod was used throughout the experiments with modification. After 72 h of incubation, 30 μL of MTT was added to each well, and the plates were further incubated for 3 h. The absorbance at 550 nm was measured with a 96-well scanner. Antileishmanial activity was expressed as the percentage of inhibition in the number of live parasites compared to that in the control (nontreated parasites). % inhibition was calculated as follows: % growth inhibition = [(absorb cell with drug × 100)/absorb cell control] – 100. Results were analyzed by GraphPad Prism 5.0, dose–response curves were obtained and IC50 deduced (GraphPad Software Inc., San Diego, USA).

[3] = Cytotoxicity assay on human THP-1-derived macrophages (MTT); assay type: cell-based; conditions: human, THP-1 cells differentiated into macrophages with PMA, 72 h, MTT; read-out: human THP-1-derived macrophage CC50 ± SE (95% CI)
Description: as §1

[4] = tested on: human THP-1-derived macrophages; assay: as above; assay type: cell-based
Description: as §1

[5] = target: T1, Leishmania infantum TR (LiTR) (Leishmania infantum, UniProt A4HSF7); assay: LiTR enzymatic inhibition assay (NADPH oxidation at 340 nm); assay type: biochemical; conditions: for IC50: 50 nM LiTR, 150 μM trypanothione, 100 μM NADPH, 25 °C; for gain in LiTR IC50 with respect to 5: compared to compound 5 (IC50 54.6 μM); for remaining activity at 10 µM: compound at 10 μM, mean ± SD, n = 3, read-out: LiTR residual activity %
T1 construct: The TbTR and LiTR genes were subcloned in a pET28b vector; 6-His (cleaved yes); made in house; host or cells: E. coli BL21(DE3), pET28b
Description: Enzymatic inhibition assays were performed in 50 mM HEPES pH 7.4, 40 mM NaCl at 25 °C using a JASCO V650 spectrophotometer equipped with a JASCO EHC 716 Peltier element to ensure controlled temperature. The first experiment was carried out using 50 nM LiTR, 10 or 100 μM compound to be tested, 150 μM trypanothione (trypanothione disulfide purchased from Bachem), and 100 μM NADPH (tetrasodium salt, purchased from Calbiochem). The best inhibitor candidates were then tested at concentrations ranging from 1 nM to 250 μM to determine the IC50. Assays were initiated upon addition of 100 μM NADPH to 50 nM LiTR or hGR (human glutathione reductase purchased from Sigma-Aldrich) in the presence of different concentration of compounds and 150 μM trypanothione. For both experiments, the oxidation of NADPH was followed as a decrease in absorbance at 340 nm. For each concentration of compound, the initial velocity of the NADPH oxidation was used to determine the percentage of LiTR activity with respect to that in the absence of any compound. The IC50 was determined upon fitting the residual activity of TR as a dose–response logistic equation defined as ymin + (ymax – ymin)/(1 + (x/IC50)^slope). […] The Ki was determined graphically upon linear fitting of data points for each trypanothione concentration. Data analysis was performed with QtiPlot 0.9.8.9 svn 2288, and graphs were made with Matplotlib.
Figure S3. Inhibition assay of LiTR (red) and hGR (grey) with compounds 5-6, 9-10 and 14.
Enzymatic assays were carried out at 25°C on a JASCO V650 spectrophotometer equipped with a JASCO EHC716 Peltier unit. Compound concentrations used during the experiments range from 1 […]
higher than 30 µM and 20 µM, respectively. Briefly, 50 nM LiTR or hGR (Sigma Aldrich) were mixed in 50 mM HEPES pH 7.4, 40 mM NaCl with each compound and 150 µM trypanothione or glutathione. After 3-minute incubation at 25°C, the measurement was initiated upon addition of 100 µM NADPH. The oxidation of NADPH was followed as a decrease in absorbance at 340 nm. Each initial velocity of LiTR enzymatic reaction with the compounds was expressed as a percentage of residual activity with respect to that in the absence of compound. Each data point is the mean of two measurements. The IC50 was determined upon fitting the data as a dose response logistic equation defined by the Kaleidagraph software as ymin+(ymax-ymin)/(1+(x/IC50)^slope).
(1 picture or pasted object on this page, not shown here)

T1 sequence (A4HSF7 1-491): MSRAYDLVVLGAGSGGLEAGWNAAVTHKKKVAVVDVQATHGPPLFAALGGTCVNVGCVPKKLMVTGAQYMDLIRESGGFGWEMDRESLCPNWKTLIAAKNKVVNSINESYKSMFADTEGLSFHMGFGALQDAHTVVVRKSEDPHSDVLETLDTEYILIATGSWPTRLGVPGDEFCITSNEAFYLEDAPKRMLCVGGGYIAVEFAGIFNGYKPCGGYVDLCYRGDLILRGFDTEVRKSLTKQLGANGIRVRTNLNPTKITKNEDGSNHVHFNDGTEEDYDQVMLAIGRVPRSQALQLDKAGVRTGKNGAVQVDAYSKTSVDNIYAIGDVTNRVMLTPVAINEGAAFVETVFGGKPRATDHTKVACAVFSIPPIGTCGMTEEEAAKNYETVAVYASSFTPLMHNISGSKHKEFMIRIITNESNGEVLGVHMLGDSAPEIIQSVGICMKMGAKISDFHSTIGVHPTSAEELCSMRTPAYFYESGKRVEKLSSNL

C[N+]1(CCCc2ccccc2)CCN(C(=O)N(Cc2ccc(C(=O)NCCc3ccc(F)cc3)o2)c2ccc(F)cc2)CC1.[I-] [Compound 9, 4-(((5-((4-Fluorophenethyl)carbamoyl)furan-2-yl)methyl)(4-fluorophenyl)carbamoyl)-1-methyl-1-(3-phenylpropyl)piperazin-1-ium Iodide]
CC50 at 72 h [1]: 29.9 ± 4.2 µM
EC50 [2]: 10.4 ± 1.1 µM
EC50 ([2]; Leishmania infantum): 10.4 µM
CC50 at 72 h [3]: 38.4 ± 11 µM
SI = human THP-1-derived macrophage CC50/axenic amastigote EC50 [4]: 3.7
IC50 [5]: 20.5 ± 2 µM
gain in LiTR IC50 with respect to 5 [5]: about 3 fold
remaining activity at 10 µM [5]: 48.5 ± 7.9%

O=C(NCCc1ccc(F)cc1)c1ccc(CNC(=O)N2CC[N+](CCCc3ccccc3)(Cc3ccc(Cl)c(Cl)c3)CC2)o1.[I-] [Compound 14, 1-(3,4-Dichlorobenzyl)-4-(((5-((4-fluorophenethyl)carbamoyl)furan-2-yl)methyl)carbamoyl)-1-(3-phenylpropyl)piperazin-1-ium Iodide]
CC50 at 72 h [1]: 12.7 ± 0.9 µM
EC50 ([2]; Leishmania infantum): 8.98 ± 0.4 µM
CC50 at 72 h [3]: 20.5 ± 3.6 µM
SI = human THP-1-derived macrophage CC50/axenic amastigote EC50 [4]: 2.3
IC50 [5]: 2.35 ± 0.21 µM
gain in LiTR IC50 with respect to 5 [5]: 23 fold
remaining activity at 10 µM [5]: 10.3 ± 2.8%

O=C(NCCc1ccc(F)cc1)c1ccc(CN(C(=O)N2CC[N+](CCCc3ccccc3)(Cc3ccc(Cl)c(Cl)c3)CC2)c2ccc(F)cc2)o1.[I-] [Compound 10, 1-(3,4-Dichlorobenzyl)-4-(((5-((4-fluorophenethyl)carbamoyl)furan-2-yl)methyl)(4-fluorophenyl)carbamoyl)-1-(3-phenylpropyl)piperazin-1-ium Iodide]
CC50 at 72 h [1]: 12.5 ± 0.8 µM
EC50 ([2]; Leishmania infantum): 11 ± 1.9 µM
CC50 at 72 h [3]: 16 ± 2.4 µM
SI = human THP-1-derived macrophage CC50/axenic amastigote EC50 [4]: 1.4
IC50 [5]: 1.31 ± 0.07 µM
gain in LiTR IC50 with respect to 5 [5]: 42 fold
remaining activity at 10 µM [5]: 22 ± 11.6%
